# Data published in PubChem BioAssay (NCI).
#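 Method: 48-hour compound exposure of cells in 96-well plates, five concentrations, linear interpolation of endpoints. At the GI50, growth is halved. TGI is the concentration that stops growth completely.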
# Key:
# Experiment in all cases: NCI anticancer screen, dose series, 48 h
# HS 578T breast = test system: HS 578T breast
# OVCAR-4 ovarian = test system: OVCAR-4 ovarian
# PC-3 prostate = test system: PC-3 prostate
# RXF 393 renal = test system: RXF 393 renal
# UACC-62 melanoma = test system: UACC-62 melanoma
# SNB-75 CNS = test system: SNB-75 CNS
# BT-549 breast = test system: BT-549 breast
# HOP-92 NSCLC = test system: HOP-92 NSCLC
# DU-145 prostate = test system: DU-145 prostate
# MDA-MB-435 = test system: MDA-MB-435
smiles,measurement,setting,value
COc1cc(OC)c(OC)cc1/C=C/c1ccccn1,TGI,HS 578T breast,> 10 µM
same,TGI,OVCAR-4 ovarian,> 10 µM
same,TGI,PC-3 prostate,> 10 µM
same,TGI,RXF 393 renal,> 10 µM
same,TGI,UACC-62 melanoma,> 10 µM
same,TGI,SNB-75 CNS,> 10 µM
same,TGI,BT-549 breast,> 10 µM
same,TGI,HOP-92 NSCLC,> 10 µM
same,TGI,DU-145 prostate,> 10 µM
same,TGI,MDA-MB-435,> 10 µM
CC[O-].CC[O-].[O-]c1ccccc1C=NC12CC3CC(CC(C3)C1)C2.[O-]c1ccccc1C=NC12CC3CC(CC(C3)C1)C2.[Ti+4],GI50,OVCAR-4 ovarian,> 100 µM
same,TGI,OVCAR-4 ovarian,> 100 µM
same,GI50,RXF 393 renal,53.9 µM
same,TGI,RXF 393 renal,> 100 µM
same,GI50,UACC-62 melanoma,19.6 µM
same,TGI,UACC-62 melanoma,> 100 µM
same,GI50,HOP-92 NSCLC,34.4 µM
same,TGI,HOP-92 NSCLC,> 100 µM
Cc1cccc(-c2nc(=S)[nH][nH]2)c1,TGI,OVCAR-4 ovarian,> 100 µM
same,TGI,UACC-62 melanoma,> 100 µM
same,TGI,SNB-75 CNS,> 100 µM
same,TGI,HOP-92 NSCLC,> 100 µM
COCCn1c(Nc2ccc(C(=O)NO)cc2)nc2ccccc21,GI50,HS 578T breast,3.43 µM
same,TGI,HS 578T breast,34.3 µM
same,GI50,OVCAR-4 ovarian,16.1 µM
same,TGI,OVCAR-4 ovarian,> 100 µM
same,GI50,PC-3 prostate,8.78 µM
same,TGI,PC-3 prostate,> 100 µM
same,GI50,RXF 393 renal,0.846 µM
same,TGI,RXF 393 renal,3.91 µM
same,GI50,UACC-62 melanoma,2.06 µM
same,TGI,UACC-62 melanoma,10.5 µM
same,GI50,SNB-75 CNS,2.62 µM
same,TGI,SNB-75 CNS,19.1 µM
same,GI50,BT-549 breast,15.2 µM
same,TGI,BT-549 breast,67.9 µM
same,GI50,DU-145 prostate,2.91 µM
same,TGI,DU-145 prostate,14.7 µM
same,GI50,MDA-MB-435,2.89 µM
same,TGI,MDA-MB-435,11.4 µM
CC(=O)Nc1ccc(CC[C@H]2CCC/C=C/[C@@H]3C[C@H](O)C[C@H]3[C@H](O)/C=C/C(=O)O2)cc1,GI50,HS 578T breast,0.0674 µM
same,TGI,HS 578T breast,> 93.7 µM
same,GI50,OVCAR-4 ovarian,0.105 µM
same,GI50,PC-3 prostate,0.353 µM
same,TGI,PC-3 prostate,> 100 µM
same,GI50,RXF 393 renal,0.0359 µM
same,TGI,RXF 393 renal,0.15 µM
same,GI50,UACC-62 melanoma,0.0434 µM
same,TGI,UACC-62 melanoma,> 92.4 µM
same,GI50,SNB-75 CNS,0.0446 µM
same,TGI,SNB-75 CNS,> 94.7 µM
same,GI50,BT-549 breast,0.182 µM
same,TGI,BT-549 breast,> 100 µM
same,GI50,HOP-92 NSCLC,0.217 µM
same,TGI,HOP-92 NSCLC,0.791 µM
same,GI50,DU-145 prostate,0.366 µM
same,TGI,DU-145 prostate,4.2 µM
same,GI50,MDA-MB-435,0.151 µM
same,TGI,MDA-MB-435,> 100 µM
CCOc1cc(/C=C/C(=O)CC(=O)/C=C/c2ccc(OC(=O)CNc3nc4ccc(OC)cc4s3)c(OCC)c2)ccc1OC(=O)CNc1nc2ccc(OC)cc2s1,GI50,HS 578T breast,3.16 µM
same,TGI,HS 578T breast,23.9 µM
same,GI50,OVCAR-4 ovarian,13.6 µM
same,TGI,OVCAR-4 ovarian,68.5 µM
same,GI50,PC-3 prostate,5.08 µM
same,TGI,PC-3 prostate,67.3 µM
same,GI50,RXF 393 renal,2.9 µM
same,TGI,RXF 393 renal,17 µM
same,GI50,UACC-62 melanoma,7.6 µM
same,TGI,UACC-62 melanoma,20.3 µM
same,GI50,SNB-75 CNS,6.77 µM
same,TGI,SNB-75 CNS,34.3 µM
same,GI50,BT-549 breast,2.62 µM
same,TGI,BT-549 breast,8.78 µM
same,GI50,HOP-92 NSCLC,18 µM
same,TGI,HOP-92 NSCLC,56.3 µM
same,GI50,DU-145 prostate,3.17 µM
same,TGI,DU-145 prostate,12.3 µM
same,GI50,MDA-MB-435,2.46 µM
same,TGI,MDA-MB-435,8.3 µM
O=C(Nc1ccc(Nc2ccc3c(c2)C(=O)c2ccccc2C3=O)c2c1C(=O)c1ccccc1C2=O)c1ccccc1,TGI,HS 578T breast,> 91.9 µM
same,TGI,OVCAR-4 ovarian,> 100 µM
same,TGI,PC-3 prostate,> 100 µM
same,TGI,RXF 393 renal,> 96.6 µM
same,TGI,UACC-62 melanoma,> 100 µM
same,TGI,SNB-75 CNS,58.1 µM
same,TGI,BT-549 breast,> 100 µM
same,TGI,HOP-92 NSCLC,> 100 µM
same,TGI,DU-145 prostate,> 100 µM
same,TGI,MDA-MB-435,> 100 µM
CC(C)(Sc1cc(C(C)(C)C)c(O)c(C(C)(C)C)c1)Sc1cc(C(C)(C)C)c(O)c(C(C)(C)C)c1,TGI,HS 578T breast,> 100 µM
same,TGI,OVCAR-4 ovarian,> 100 µM
same,TGI,PC-3 prostate,> 100 µM
same,TGI,RXF 393 renal,> 100 µM
same,TGI,UACC-62 melanoma,> 100 µM
same,TGI,SNB-75 CNS,> 100 µM
same,TGI,BT-549 breast,> 100 µM
same,TGI,DU-145 prostate,> 100 µM
same,TGI,MDA-MB-435,> 100 µM
COc1ccc(CC(C)NCC(O)c2ccc(O)c(NC=O)c2)cc1 (stereo unspecified),TGI,HS 578T breast,> 100 µM
same,TGI,OVCAR-4 ovarian,> 100 µM
same,TGI,PC-3 prostate,> 100 µM
same,TGI,RXF 393 renal,> 100 µM
same,TGI,UACC-62 melanoma,> 100 µM
same,TGI,SNB-75 CNS,> 100 µM
same,TGI,BT-549 breast,> 100 µM
same,TGI,DU-145 prostate,> 100 µM
same,TGI,MDA-MB-435,> 100 µM
Nc1nc(N)c2cc(S(=O)(=O)c3cccc(C(F)(F)F)c3)ccc2n1,GI50,HS 578T breast,4.55 µM
same,TGI,HS 578T breast,49.7 µM
same,GI50,OVCAR-4 ovarian,5.71 µM
same,TGI,OVCAR-4 ovarian,> 100 µM
same,GI50,PC-3 prostate,3.36 µM
same,TGI,PC-3 prostate,> 100 µM
same,GI50,RXF 393 renal,3.8 µM
same,TGI,RXF 393 renal,57.8 µM
same,GI50,UACC-62 melanoma,3.41 µM
same,TGI,UACC-62 melanoma,> 100 µM
same,GI50,SNB-75 CNS,12.9 µM
same,TGI,SNB-75 CNS,39.8 µM
same,GI50,HOP-92 NSCLC,3.56 µM
same,TGI,HOP-92 NSCLC,38 µM
same,GI50,DU-145 prostate,6.35 µM
same,TGI,DU-145 prostate,> 100 µM
same,GI50,MDA-MB-435,2.12 µM
same,TGI,MDA-MB-435,> 100 µM
C[C@]12CC[C@H]3[C@@H](CCC4=CC(=O)CC[C@@]43C)[C@]1(O)CC[C@]2(O)C(=O)CO,TGI,HS 578T breast,> 100 µM
same,TGI,OVCAR-4 ovarian,> 100 µM
same,TGI,PC-3 prostate,> 100 µM
same,TGI,RXF 393 renal,> 100 µM
same,TGI,UACC-62 melanoma,> 100 µM
same,TGI,SNB-75 CNS,> 100 µM
same,TGI,BT-549 breast,> 100 µM
same,TGI,DU-145 prostate,> 100 µM
same,TGI,MDA-MB-435,> 100 µM
O=c1c2ccccc2c(=O)n2n1-c1cccc(c1)CSSCc1cccc-2c1,GI50,OVCAR-4 ovarian,> 100 µM
same,TGI,OVCAR-4 ovarian,> 100 µM
same,TGI,RXF 393 renal,> 100 µM
same,GI50,UACC-62 melanoma,> 100 µM
same,TGI,UACC-62 melanoma,> 100 µM
CC(C)N1CCOC(c2ccc(O)c(O)c2)C1 (stereo unspecified),TGI,OVCAR-4 ovarian,> 100 µM
same,TGI,RXF 393 renal,> 100 µM
same,TGI,UACC-62 melanoma,> 100 µM
same,TGI,SNB-75 CNS,> 100 µM
same,TGI,HOP-92 NSCLC,> 100 µM
O=c1c(-c2cccc3ccccc23)c(-c2cccc3ccccc23)c1=O,TGI,RXF 393 renal,45.7 µM
same,TGI,UACC-62 melanoma,> 100 µM
same,TGI,SNB-75 CNS,4.07 µM
same,TGI,HOP-92 NSCLC,39.4 µM
CS(=O)(=O)N(CCC#N)c1ccc(/C=C2\N=C(c3ccccc3Cl)OC2=O)cc1,TGI,RXF 393 renal,> 100 µM
same,TGI,UACC-62 melanoma,> 100 µM
same,TGI,SNB-75 CNS,> 100 µM
CN(C)C(=C1C(Br)=C(Br)C(Br)=C1Br)N(C)C,TGI,OVCAR-4 ovarian,> 100 µM
same,TGI,RXF 393 renal,> 100 µM
same,TGI,UACC-62 melanoma,> 100 µM
same,TGI,SNB-75 CNS,> 100 µM
same,TGI,HOP-92 NSCLC,> 100 µM
O=C1CN=C(c2ccccc2)c2ccncc2N1,TGI,OVCAR-4 ovarian,> 100 µM
same,TGI,RXF 393 renal,> 100 µM
same,TGI,UACC-62 melanoma,> 100 µM
same,TGI,SNB-75 CNS,> 100 µM
same,TGI,HOP-92 NSCLC,> 100 µM
O=C(c1ccccc1)[C@H]1Nc2ccc(Cl)cc2[C@H]2c3ccccc3O[C@H]21,TGI,OVCAR-4 ovarian,32.3 µM
same,TGI,RXF 393 renal,22.4 µM
same,TGI,UACC-62 melanoma,28.6 µM
same,TGI,SNB-75 CNS,25.6 µM
O=c1[nH]c(=O)n(Cc2ccc(C34CC5CC(CC(C5)C3)C4)c(O)c2)cc1F,GI50,HS 578T breast,15 µM
same,TGI,HS 578T breast,41.7 µM
same,GI50,OVCAR-4 ovarian,13.8 µM
same,TGI,OVCAR-4 ovarian,30.2 µM
same,GI50,RXF 393 renal,5.28 µM
same,TGI,RXF 393 renal,18.3 µM
same,GI50,UACC-62 melanoma,6.93 µM
same,TGI,UACC-62 melanoma,20.3 µM
same,GI50,SNB-75 CNS,12.8 µM
same,TGI,SNB-75 CNS,32 µM
same,GI50,BT-549 breast,14.4 µM
same,TGI,BT-549 breast,28.1 µM
same,GI50,HOP-92 NSCLC,13.5 µM
same,TGI,HOP-92 NSCLC,26.4 µM
same,GI50,DU-145 prostate,16.7 µM
same,TGI,DU-145 prostate,32.4 µM
same,GI50,MDA-MB-435,3.67 µM
same,TGI,MDA-MB-435,15.4 µM
Clc1ccc2c(NC3CCC(NC4CCCCC4)CC3)ccnc2c1 (stereo unspecified),GI50,OVCAR-4 ovarian,6.48 µM
same,TGI,OVCAR-4 ovarian,41 µM
same,GI50,PC-3 prostate,11.2 µM
same,TGI,PC-3 prostate,43.2 µM
same,GI50,RXF 393 renal,3.61 µM
same,TGI,RXF 393 renal,16.6 µM
same,GI50,UACC-62 melanoma,3.26 µM
same,TGI,UACC-62 melanoma,12.5 µM
same,GI50,SNB-75 CNS,4.63 µM
same,TGI,SNB-75 CNS,19.4 µM
same,GI50,BT-549 breast,12.3 µM
same,TGI,BT-549 breast,25.1 µM
same,GI50,HOP-92 NSCLC,1.2 µM
same,TGI,HOP-92 NSCLC,9.74 µM
same,GI50,DU-145 prostate,13.3 µM
same,TGI,DU-145 prostate,33.6 µM
same,GI50,MDA-MB-435,2.11 µM
same,TGI,MDA-MB-435,5.51 µM
